Results as given in ChEMBL document CHEMBL1201862, “PubChem BioAssay data set” (2004).
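Following 48 hours of exposure in 96-well plates, responses at five concentrations were used to interpolate endpoints linearly. GI50 marks 50% less growth.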 Activity calls are given as the source filed them. No stated cut-off is given here; in the data, active = GI50 up to about 1.1 µM and inactive = higher.

Columns and labels:
Assay in all cases: NCI-60 cell line screen, 48 h
HOP-18 = test system: HOP-18
M14 = test system: M14
A549 = test system: A549
UACC-257 = test system: UACC-257
SF-295 = test system: SF-295
RXF 631 = test system: RXF 631
M19-MEL = test system: M19-MEL
Malme-3M = test system: Malme-3M
RPMI-8226 = test system: RPMI-8226
HL-60 = test system: HL-60
786-0 = test system: 786-0
KM12 = test system: KM12
SNB-19 = test system: SNB-19
HCT-116 = test system: HCT-116
KM-20L2 = test system: KM-20L2
SF-268 = test system: SF-268
SF-539 = test system: SF-539
UO-31 = test system: UO-31
K562 = test system: K562
NCI-H226 = test system: NCI-H226
LOX IMVI = test system: LOX IMVI
SK-OV-3 = test system: SK-OV-3
SNB-78 = test system: SNB-78
SK-MEL-28 = test system: SK-MEL-28
OVCAR-5 = test system: OVCAR-5
EKVX = test system: EKVX
SN12C = test system: SN12C
SK-MEL-5 = test system: SK-MEL-5
DLD-1 = test system: DLD-1
A498 = test system: A498
COLO 205 = test system: COLO 205
SW-620 = test system: SW-620
HOP-92 = test system: HOP-92
OVCAR-4 = test system: OVCAR-4
SNB-75 = test system: SNB-75
LXFL 529 = test system: LXFL 529
XF498 = test system: XF498
HCC 2998 = test system: HCC 2998
IGROV-1 = test system: IGROV-1
OVCAR-8 = test system: OVCAR-8
SR = test system: SR
HCT-15 = test system: HCT-15
NCI-H23 = test system: NCI-H23
OVCAR-3 = test system: OVCAR-3
CAKI-1 = test system: CAKI-1
RXF 393 = test system: RXF 393
CCRF-CEM = test system: CCRF-CEM
TK-10 = test system: TK-10
NCI-H522 = test system: NCI-H522
HOP-62 = test system: HOP-62
U-251 = test system: U-251
HT-29 = test system: HT-29
NCI-H460 = test system: NCI-H460
SK-MEL-2 = test system: SK-MEL-2
UACC-62 = test system: UACC-62
MOLT-4 = test system: MOLT-4
ACHN = test system: ACHN
DMS-114 = test system: DMS-114
DMS-273 = test system: DMS-273

Compound: N#Cc1cc([N+](=O)[O-])ccc1NC(=O)C(=O)Nn1c(S)nc2ccccc2c1=O
- GI50 (HOP-18): > 100 µM (inactive)
- GI50 (M14): > 100 µM (inactive)
- GI50 (A549): > 100 µM (inactive)
- GI50 (UACC-257): > 100 µM (inactive)
- GI50 (SF-295): > 100 µM (inactive)
- GI50 (RXF 631): > 100 µM (inactive)
- GI50 (M19-MEL): > 100 µM (inactive)
- GI50 (Malme-3M): > 100 µM (inactive)
- GI50 (RPMI-8226): > 100 µM (inactive)
- GI50 (HL-60): > 100 µM (inactive)
- GI50 (786-0): > 100 µM (inactive)
- GI50 (KM12): > 100 µM (inactive)
- GI50 (SNB-19): > 100 µM (inactive)
- GI50 (HCT-116): > 100 µM (inactive)
- GI50 (KM-20L2): > 100 µM (inactive)
- GI50 (SF-268): > 100 µM (inactive)
- GI50 (SF-539): > 100 µM (inactive)
- GI50 (UO-31): > 100 µM (inactive)
- GI50 (K562): > 100 µM (inactive)
- GI50 (NCI-H226): > 100 µM (inactive)
- GI50 (LOX IMVI): > 100 µM (inactive)
- GI50 (SK-OV-3): > 100 µM (inactive)
- GI50 (SNB-78): > 100 µM (inactive)
- GI50 (SK-MEL-28): > 100 µM (inactive)
- GI50 (OVCAR-5): > 100 µM (inactive)
- GI50 (EKVX): > 100 µM (inactive)
- GI50 (SN12C): > 100 µM (inactive)
- GI50 (SK-MEL-5): > 100 µM (inactive)
- GI50 (DLD-1): > 100 µM (inactive)
- GI50 (A498): > 100 µM (inactive)
- GI50 (COLO 205): > 100 µM (inactive)
- GI50 (SW-620): > 100 µM (inactive)
- GI50 (HOP-92): > 100 µM (inactive)
- GI50 (OVCAR-4): > 100 µM (inactive)
- GI50 (SNB-75): > 100 µM (inactive)
- GI50 (LXFL 529): > 100 µM (inactive)
- GI50 (XF498): > 100 µM (inactive)
- GI50 (HCC 2998): > 100 µM (inactive)
- GI50 (IGROV-1): > 100 µM (inactive)
- GI50 (OVCAR-8): > 100 µM (inactive)
- GI50 (SR): > 100 µM (inactive)
- GI50 (HCT-15): > 100 µM
- GI50 (NCI-H23): > 100 µM (inactive)
- GI50 (OVCAR-3): > 100 µM (inactive)
- GI50 (CAKI-1): > 100 µM (inactive)
- GI50 (RXF 393): > 100 µM (inactive)
- GI50 (CCRF-CEM): > 100 µM (inactive)
- GI50 (TK-10): > 100 µM (inactive)
- GI50 (NCI-H522): > 100 µM (inactive)
- GI50 (HOP-62): > 100 µM (inactive)
- GI50 (U-251): > 100 µM (inactive)
- GI50 (HT-29): > 100 µM (inactive)
- GI50 (NCI-H460): > 100 µM (inactive)

Compound: COc1c(OC2OC(CO)C(O)C(O)C2O)cc2c(c1OC)-c1ccc(OC)c(=O)cc1C(NC(C)=O)CC2 (configuration not stated)
- GI50 (HOP-18): > 100 µM (inactive)
- GI50 (M14): > 100 µM (inactive)
- GI50 (A549): > 100 µM (inactive)
- GI50 (UACC-257): > 100 µM (inactive)
- GI50 (SF-295): > 87.3 µM (inactive)
- GI50 (RXF 631): > 100 µM (inactive)
- GI50 (M19-MEL): > 91.2 µM (inactive)
- GI50 (Malme-3M): 81.7 µM (inactive)
- GI50 (RPMI-8226): > 100 µM (inactive)
- GI50 (SK-MEL-2): 57.8 µM (inactive)
- GI50 (HL-60): > 100 µM (inactive)
- GI50 (786-0): > 100 µM (inactive)
- GI50 (KM12): > 100 µM (inactive)
- GI50 (SNB-19): > 100 µM (inactive)
- GI50 (HCT-116): > 100 µM (inactive)
- GI50 (KM-20L2): > 100 µM (inactive)
- GI50 (SF-268): > 100 µM (inactive)
- GI50 (SF-539): > 100 µM (inactive)
- GI50 (UACC-62): 60.1 µM (inactive)
- GI50 (UO-31): > 100 µM (inactive)
- GI50 (K562): > 97.3 µM (inactive)
- GI50 (NCI-H226): > 100 µM (inactive)
- GI50 (MOLT-4): > 100 µM (inactive)
- GI50 (LOX IMVI): > 100 µM (inactive)
- GI50 (SK-OV-3): > 100 µM (inactive)
- GI50 (SNB-78): > 100 µM (inactive)
- GI50 (SK-MEL-28): 61 µM (inactive)
- GI50 (ACHN): > 100 µM (inactive)
- GI50 (OVCAR-5): > 100 µM (inactive)
- GI50 (EKVX): > 100 µM (inactive)
- GI50 (SN12C): > 100 µM (inactive)
- GI50 (SK-MEL-5): 35.4 µM (inactive)
- GI50 (DLD-1): > 100 µM (inactive)
- GI50 (A498): > 100 µM (inactive)
- GI50 (COLO 205): > 28.3 µM (inactive)
- GI50 (DMS-114): 35.7 µM (inactive)
- GI50 (SW-620): > 100 µM (inactive)
- GI50 (HOP-92): 44.6 µM (inactive)
- GI50 (OVCAR-4): > 100 µM (inactive)
- GI50 (SNB-75): 25.3 µM (inactive)
- GI50 (LXFL 529): 86.1 µM (inactive)
- GI50 (XF498): 83.6 µM (inactive)
- GI50 (HCC 2998): > 100 µM (inactive)
- GI50 (IGROV-1): > 84.1 µM (inactive)
- GI50 (OVCAR-8): > 100 µM (inactive)
- GI50 (SR): > 100 µM (inactive)
- GI50 (HCT-15): > 100 µM
- GI50 (NCI-H23): > 100 µM (inactive)
- GI50 (OVCAR-3): > 89.7 µM (inactive)
- GI50 (CAKI-1): > 100 µM (inactive)
- GI50 (RXF 393): > 83.6 µM (inactive)
- GI50 (CCRF-CEM): > 100 µM (inactive)
- GI50 (TK-10): > 100 µM (inactive)
- GI50 (NCI-H522): > 100 µM (inactive)
- GI50 (DMS-273): > 100 µM (inactive)
- GI50 (HOP-62): > 100 µM (inactive)
- GI50 (U-251): > 100 µM (inactive)
- GI50 (HT-29): > 100 µM (inactive)
- GI50 (NCI-H460): > 100 µM (inactive)
